Results as given in publication PMC10500570 (ACS Omega, 2023).

How the values were obtained:
SH-SY5Y cells = assay: SRB cytotoxicity assay; assay type: cell-based; conditions: Homo sapiens, 48 h, read-out: GI50 ± SD
Human recombinant AChE = Human recombinant AChE (Homo sapiens, UniProt P22303); assay: AChE inhibition, Ellman assay; assay type: biochemical
BChE from equine serum = BChE from equine serum (Equus caballus, UniProt P81908); assay: BChE inhibition, Ellman assay; assay type: biochemical
BChE from equine serum, sequence (P81908 whole entry): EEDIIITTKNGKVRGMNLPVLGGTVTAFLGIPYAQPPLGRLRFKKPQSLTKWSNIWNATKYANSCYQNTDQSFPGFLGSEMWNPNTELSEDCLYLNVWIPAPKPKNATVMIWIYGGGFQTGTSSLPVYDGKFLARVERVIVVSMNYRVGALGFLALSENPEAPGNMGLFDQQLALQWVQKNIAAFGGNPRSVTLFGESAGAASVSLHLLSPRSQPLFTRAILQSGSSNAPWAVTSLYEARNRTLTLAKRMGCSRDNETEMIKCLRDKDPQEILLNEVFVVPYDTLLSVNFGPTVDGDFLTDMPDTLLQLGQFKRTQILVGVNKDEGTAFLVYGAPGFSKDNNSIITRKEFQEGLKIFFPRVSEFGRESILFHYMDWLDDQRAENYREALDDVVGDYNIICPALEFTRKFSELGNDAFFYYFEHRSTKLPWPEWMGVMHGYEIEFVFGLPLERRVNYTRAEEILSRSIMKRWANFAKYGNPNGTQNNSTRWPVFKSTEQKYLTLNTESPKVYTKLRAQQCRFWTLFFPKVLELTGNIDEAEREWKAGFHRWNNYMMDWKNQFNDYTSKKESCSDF

Human recombinant AChE, sequence (P22303 32-614): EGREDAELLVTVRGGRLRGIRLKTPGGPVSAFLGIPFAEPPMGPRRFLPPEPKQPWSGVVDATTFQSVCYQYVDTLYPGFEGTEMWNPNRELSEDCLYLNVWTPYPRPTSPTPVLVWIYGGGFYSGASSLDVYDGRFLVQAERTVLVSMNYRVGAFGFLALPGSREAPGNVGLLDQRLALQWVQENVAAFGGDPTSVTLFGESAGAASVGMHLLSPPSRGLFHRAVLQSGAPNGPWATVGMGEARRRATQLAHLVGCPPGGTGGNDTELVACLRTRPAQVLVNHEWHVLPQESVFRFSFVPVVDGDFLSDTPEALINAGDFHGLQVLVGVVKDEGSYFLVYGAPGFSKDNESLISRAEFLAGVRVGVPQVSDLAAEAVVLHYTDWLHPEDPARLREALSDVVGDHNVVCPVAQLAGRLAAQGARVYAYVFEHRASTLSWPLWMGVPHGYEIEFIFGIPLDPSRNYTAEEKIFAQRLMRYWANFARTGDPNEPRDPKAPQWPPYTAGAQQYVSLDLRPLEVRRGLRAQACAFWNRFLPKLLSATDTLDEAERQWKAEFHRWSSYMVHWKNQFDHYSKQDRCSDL

Compound | GI50 (SH-SY5Y cells) [µM] | IC50 (Human recombinant AChE) [µM] | IC50 (BChE from equine serum) [µM] | SI (selectivity index) (Human recombinant AChE; Selectivity index = BChE IC50/AChE IC50)
O=C1C=C(OCCCCCCn2cc(CNc3ccc4ncc(-c5ccccc5)nc4c3)nn2)C(=O)c2ccccc21 [Compound 7c] | > 100 | > 100 | > 100 | 
O=C1C=C(OCCCCCCCCn2cc(CNc3ccc4ncc(-c5ccccc5)nc4c3)nn2)C(=O)c2ccccc21 [Compound 7d] | > 100 | > 100 | 4.4 ± 0.4 | <0.044
